Experiment [1] addresses T1, AHR (Homo sapiens, UniProt P35869).
T1 sequence (P35869 11-848): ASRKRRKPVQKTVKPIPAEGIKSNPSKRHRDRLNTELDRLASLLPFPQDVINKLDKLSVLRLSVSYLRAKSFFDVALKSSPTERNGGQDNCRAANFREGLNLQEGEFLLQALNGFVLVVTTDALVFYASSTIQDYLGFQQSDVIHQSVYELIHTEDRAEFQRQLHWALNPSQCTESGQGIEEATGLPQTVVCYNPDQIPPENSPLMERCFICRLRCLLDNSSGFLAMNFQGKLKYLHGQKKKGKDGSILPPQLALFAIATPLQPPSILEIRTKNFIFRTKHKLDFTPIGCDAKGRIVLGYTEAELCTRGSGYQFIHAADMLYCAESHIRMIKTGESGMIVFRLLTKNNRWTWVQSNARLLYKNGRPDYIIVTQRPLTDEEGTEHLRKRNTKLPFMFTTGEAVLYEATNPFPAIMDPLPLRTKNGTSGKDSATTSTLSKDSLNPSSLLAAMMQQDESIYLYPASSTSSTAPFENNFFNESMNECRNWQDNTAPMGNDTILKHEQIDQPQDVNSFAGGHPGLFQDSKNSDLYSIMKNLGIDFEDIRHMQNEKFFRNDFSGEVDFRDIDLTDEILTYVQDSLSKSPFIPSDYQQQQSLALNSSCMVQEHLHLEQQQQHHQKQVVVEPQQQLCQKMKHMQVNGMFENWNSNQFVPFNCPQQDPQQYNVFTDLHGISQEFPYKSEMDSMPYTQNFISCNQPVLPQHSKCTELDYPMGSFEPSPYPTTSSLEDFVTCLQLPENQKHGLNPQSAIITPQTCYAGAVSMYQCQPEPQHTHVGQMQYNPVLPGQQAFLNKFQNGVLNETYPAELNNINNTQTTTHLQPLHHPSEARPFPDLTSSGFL
Nature of the experiment: In vitro assay 2: agonism in human cell line (transactivation assay).

For experiment [2], the target named is T1, AHR. Nature of the experiment: In vitro assay 1: antagonism in human cell line (transactivation assay, kynurenic acid prestimulated). To be noted: Assay 1: AHR-luc Hum Antagonism IC50 [M], 150 μM kynurenic acid, 20 hours, firefly luciferase.
Where [3] appears, read: Assay 2: AHR-luc Hum Agonism IC50 [M], no kynurenic acid, 20 hours, firefly luciferase.

In general, IC50 refers to the concentration needed to halve the response being measured.

Consider `C[C@@H](O)CCNC(=O)c1cc(-c2ccc(C(F)(F)F)cc2)nn(-c2cccc(F)c2)c1=O` (single isomer, unassigned) [Example 330], for which the results for the IC50 against AHR [1] (setting [3]) and against AHR [2] were more than 2e-05 M and 1.21e-07 M, respectively. On to `C[C@@H](CO)NC(=O)c1cc(-c2ccc(Cl)cc2)nn(-c2cccc(C(F)F)c2)c1=O` [Example 370, 6-(4-chlorophenyl)-2-[3-(difluoromethyl)phenyl]-N-[(2S)-1-hydroxypropan-2-yl]-3-oxo-2,3-dihydropyridazine-4-carboxamide], for which the IC50 was more than 2e-05 M at AHR [1] (setting [3]) and 9.24e-07 M at AHR [2]. For the compound `CC(C)[C@@H](CO)NC(=O)c1cc(-c2ccc(C(F)(F)F)cc2)nn(-c2cccc(F)c2)c1=O` [Example 239, 2-(3-Fluorophenyl)-N-[(2S)-1-hydroxy-3-methylbutan-2-yl]-3-oxo-6-[4-(trifluoromethyl)phenyl]-2,3-dihydropyridazine-4-carboxamide], the IC50 against AHR [1] (setting [3]) is more than 2e-05 M.

Turning to `CC(O)C(NC(=O)c1cc(-c2ccc(C(F)(F)F)cc2)nn(-c2cccc(F)c2)c1=O)C(F)(F)F` (racemic) [Example 260, 2-(3-Fluorophenyl)-3-oxo-N-[(2RS,3RS)-1,1,1-trifluoro-3-hydroxybutan-2-yl]-6-[4-(trifluoromethyl)phenyl]-2,3-dihydropyridazine-4-carboxamide or 2-(3-fluorophenyl)-3-oxo-N-[(2SR,3RS)-1,1,1-trifluoro-3-hydroxybutan-2-yl]-6-[4-(trifluoromethyl)phenyl]-2,3-dihydropyridazine-4-carboxamide], the IC50 on AHR [1] (setting [3]) was more than 2e-05 M. The same measure, in the same setting: then `O=C(NC(CO)C(F)(F)F)c1cc(-c2ccc(C(F)(F)F)cc2)nn(-c2cccc(F)c2)c1=O` (racemic) [Example 266, 2-(3-Fluorophenyl)-3-oxo-N-[(2RS)-1,1,1-trifluoro-3-hydroxypropan-2-yl]-6-[4-(trifluoromethyl)phenyl]-2,3-dihydropyridazine-4-carboxamide], with 7.84e-07 M; and `CC(NC(=O)c1cc(-c2ccc(Cl)cc2)nn(-c2cccc(F)c2)c1=O)C(O)C(F)(F)F` (mixture of isomers) [Example 217, Isomeric mixture no. 1 of 6-(4-chlorophenyl)-2-(3-fluorophenyl)-3-oxo-N-(4,4,4-trifluoro-3-hydroxybutan-2-yl)-2,3-dihydropyridazine-4-carboxamide], with more than 2e-05 M. `CC(C)(O)C(NC(=O)c1cc(-c2ccc(C(F)(F)F)cc2)nn(-c2cccc(F)c2)c1=O)C(F)(F)F` (single isomer, unassigned; (+)) [Example 395, (+)-2-(3-fluorophenyl)-3-oxo-N-(1,1,1-trifluoro-3-hydroxy-3-methylbutan-2-yl)-6-[4-(trifluoromethyl)phenyl]-2,3-dihydropyridazine-4-carboxamide]: on AHR [1] (read-out: Assay 2: AHR-luc Hum Agonism IC50, no kynurenic acid, 20 hours, firefly luciferase), the IC50 was more than 2e-05 M.

As to `CC(C)[C@H](CO)NC(=O)c1cc(-c2ccc(C(F)(F)F)cc2)nn(-c2cccc(F)c2)c1=O` [Example 240, 2-(3-Fluorophenyl)-N-[(2R)-1-hydroxy-3-methylbutan-2-yl]-3-oxo-6-[4-(trifluoromethyl)phenyl]-2,3-dihydropyridazine-4-carboxamide], half-maximal inhibition against AHR [1] (setting [3]) (IC50) required 6.56e-08 M. Consider `Cc1ccc(-c2cc(C(=O)N[C@H](C)CO)c(=O)n(-c3cccc(F)c3)n2)cc1C` [Example 90, 6-(3,4-dimethylphenyl)-2-(3-fluorophenyl)-N-[(2R)-1-hydroxypropan-2-yl]-3-oxo-2,3-dihydropyridazine-4-carboxamide], for which the IC50 at AHR [2] is 6.75e-07 M. For the compound `O=C(N[C@@H]1CCC[C@@H]1O)c1cc(-c2ccc(Cl)cc2)nn(-c2cccc(F)c2)c1=O` [Example 133, 6-(4-Chlorophenyl)-2-(3-fluorophenyl)-N-[(1R,2S)-2-hydroxycyclopentyl]-3-oxo-2,3-dihydropyridazine-4-carboxamide], the IC50 at AHR [1] (setting [3]) was more than 2e-05 M. Consider `CC(CO)NC(=O)c1cc(-c2ccc(Cl)cc2)nn(-c2cccc(F)c2)c1=O` (stereo not shown) [Example 22, 6-(4-Chlorophenyl)-2-(3-fluorophenyl)-N-(1-hydroxypropan-2-yl)-3-oxo-2,3-dihydropyridazine-4-carboxamide], for which 8.39e-08 M corresponded to half-maximal inhibition against AHR [2] (IC50).

These data come from patent publication US11040035B2, “3-oxo-2,6-diphenyl-2,3-dihydropyridazine-4-carboxamides” (BAYER PHARMA AKTIENGESELLSCHAFT, priority 2016, dated 2021).
